Among the data in ChEMBL document CHEMBL4613228, “Identification of small-molecule urea derivatives as novel NAMPT inhibitors via pharmacophore-based virtual screening” (Bioorg Med Chem, 2020) are IC50 and inhibition values, retold here.

One experiment has as its system HepG2. The experiment is described as follows: Cytotoxicity against human HepG2 cells assessed as reduction in cell viability measured after 72 hrs by SRB assay. The experiment is classed as functional, cell-based. The following applies: for IC50: HepG2, 72 h.
Experiment [1] concerns the target Nicotinamide phosphoribosyltransferase (Homo sapiens, UniProt P43490). Briefly: Inhibition of NAMPT (unknown origin) using NAM and PRPP as substrates incubated for 2 hrs in presence of ATP by fluorimetric plate reader assay.

Chain of Nicotinamide phosphoribosyltransferase (P43490 whole entry): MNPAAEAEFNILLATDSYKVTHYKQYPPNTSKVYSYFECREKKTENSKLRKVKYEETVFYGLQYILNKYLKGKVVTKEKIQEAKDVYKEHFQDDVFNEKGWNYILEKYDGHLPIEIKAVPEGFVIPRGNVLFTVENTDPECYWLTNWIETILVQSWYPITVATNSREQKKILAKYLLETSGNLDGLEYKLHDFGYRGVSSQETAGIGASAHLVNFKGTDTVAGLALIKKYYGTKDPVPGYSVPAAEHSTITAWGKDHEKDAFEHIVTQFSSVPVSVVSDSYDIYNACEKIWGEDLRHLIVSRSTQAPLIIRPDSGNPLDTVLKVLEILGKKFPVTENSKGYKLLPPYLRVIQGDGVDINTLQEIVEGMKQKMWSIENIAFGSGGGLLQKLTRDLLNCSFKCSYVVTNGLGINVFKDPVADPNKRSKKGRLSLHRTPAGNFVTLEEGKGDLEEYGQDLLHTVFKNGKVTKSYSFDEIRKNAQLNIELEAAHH

Consider `O=C(/C=C/c1cccnc1)NCCCCC1CCN(C(=O)c2ccccc2)CC1` [DAPORINAD], for which the IC50 with HepG2 turned out to be 0.0187 µM.
For `CCOC(=O)c1ccc(NC(=O)NCc2ccnc(-n3ccnc3C)c2)cc1`, the IC50 in the experiment with HepG2 was determined as 24.3 µM; in experiment [1], 7.31 µM.
Consider `CCCOC(=O)c1ccc(NC(=O)NCc2cccnc2)cc1`, for which the inhibition entry in the experiment on HepG2 was “Dose-dependent effect”. Moreover, the IC50 in the experiment with HepG2 came out at 15.2 µM; in experiment [1] it was 2.15 µM.
